According to the NIST ThermoML archive (doi:10.1021/acs.jced.8b01236):
± gives the expanded uncertainty stated by the source.

Test: xn = mol fraction of the nth substance listed
Conditions: Liquid; for binary diffusion coefficient: Open capillary; for mass density: Pycnometric method

CCCCCC[N+]1(C)CCCC1.O=S(=O)([N-]S(=O)(=O)C(F)(F)F)C(F)(F)F + O=C=O
binary diffusion coefficient (298.15 K, 100 kPa, x2 = 0.2): 1.6e-10 m2/s
binary diffusion coefficient (298.15 K, 1000 kPa, x2 = 0.2): 2.4e-10 m2/s
mass density (298.15 K, 1004 kPa, x2 = 0.236): 1360 ± 9 kg/m3
binary diffusion coefficient (298.15 K, 2000 kPa, x2 = 0.2): 4e-10 m2/s
mass density (298.15 K, 2030 kPa, x2 = 0.403): 1354 ± 8 kg/m3
mass density (298.15 K, 2493 kPa, x2 = 0.484): 1343 ± 6 kg/m3
mass density (298.15 K, 3003 kPa, x2 = 0.531): 1345 ± 6 kg/m3
mass density (298.15 K, 3496 kPa, x2 = 0.577): 1336 ± 8 kg/m3
mass density (298.15 K, 3999 kPa, x2 = 0.614): 1324 ± 8 kg/m3
mass density (298.15 K, 4496 kPa, x2 = 0.653): 1308 ± 8 kg/m3
mass density (298.15 K, 4998 kPa, x2 = 0.683): 1299 ± 8 kg/m3
mass density (298.15 K, 5521 kPa, x2 = 0.716): 1294 ± 10 kg/m3
mass density (298.15 K, 5995 kPa, x2 = 0.738): 1281 ± 12 kg/m3
mass density (298.15 K, 6387 kPa, x2 = 0.751): 1263 ± 22 kg/m3
mass density (318.15 K, 1005 kPa, x2 = 0.179): 1346 ± 7 kg/m3
mass density (318.15 K, 2021 kPa, x2 = 0.315): 1332 ± 7 kg/m3
mass density (318.15 K, 2513 kPa, x2 = 0.366): 1315 ± 6 kg/m3
mass density (318.15 K, 2996 kPa, x2 = 0.416): 1323 ± 6 kg/m3
mass density (318.15 K, 4039 kPa, x2 = 0.515): 1311 ± 8 kg/m3
mass density (318.15 K, 6032 kPa, x2 = 0.632): 1301 ± 12 kg/m3
mass density (318.15 K, 7998 kPa, x2 = 0.72): 1291 ± 20 kg/m3
mass density (318.15 K, 9884 kPa, x2 = 0.783): 1345 ± 44 kg/m3
binary diffusion coefficient (318.2 K, 100 kPa, x2 = 0.15): 2.3e-10 m2/s
binary diffusion coefficient (318.2 K, 1000 kPa, x2 = 0.15): 3.8e-10 m2/s
binary diffusion coefficient (318.2 K, 1800 kPa, x2 = 0.15): 3.8e-10 m2/s
mass density (338.15 K, 1001 kPa, x2 = 0.118): 1307 ± 7 kg/m3
mass density (338.15 K, 2028 kPa, x2 = 0.264): 1315 ± 7 kg/m3
mass density (338.15 K, 2537 kPa, x2 = 0.293): 1311 ± 7 kg/m3
mass density (338.15 K, 3030 kPa, x2 = 0.346): 1310 ± 6 kg/m3
mass density (338.15 K, 4022 kPa, x2 = 0.443): 1313 ± 6 kg/m3
mass density (338.15 K, 5027 kPa, x2 = 0.508): 1311 ± 8 kg/m3
mass density (338.15 K, 6014 kPa, x2 = 0.561): 1307 ± 8 kg/m3
mass density (338.15 K, 7501 kPa, x2 = 0.637): 1310 ± 8 kg/m3
mass density (338.15 K, 10006 kPa, x2 = 0.706): 1319 ± 16 kg/m3
mass density (338.15 K, 12478 kPa, x2 = 0.752): 1325 ± 18 kg/m3
mass density (338.15 K, 14944 kPa, x2 = 0.771): 1341 ± 12 kg/m3

CCCC[N+]1(C)CCCC1.O=S(=O)([N-]S(=O)(=O)C(F)(F)F)C(F)(F)F + O=C=O
binary diffusion coefficient (298.15 K, 100 kPa, x2 = 0.2): 1.3e-10 m2/s
mass density (298.15 K, 996 kPa, x2 = 0.199): 1385 ± 7 kg/m3
binary diffusion coefficient (298.15 K, 1000 kPa, x2 = 0.2): 1.6e-10 m2/s
mass density (298.15 K, 1997 kPa, x2 = 0.379): 1377 ± 6 kg/m3
binary diffusion coefficient (298.15 K, 2000 kPa, x2 = 0.2): 3e-10 m2/s
mass density (298.15 K, 2502 kPa, x2 = 0.449): 1371 ± 6 kg/m3
mass density (298.15 K, 3031 kPa, x2 = 0.51): 1361 ± 6 kg/m3
mass density (298.15 K, 3511 kPa, x2 = 0.559): 1351 ± 6 kg/m3
mass density (298.15 K, 4013 kPa, x2 = 0.602): 1348 ± 6 kg/m3
mass density (298.15 K, 4504 kPa, x2 = 0.638): 1345 ± 6 kg/m3
mass density (298.15 K, 5002 kPa, x2 = 0.674): 1339 ± 6 kg/m3
mass density (298.15 K, 5512 kPa, x2 = 0.702): 1336 ± 8 kg/m3
mass density (298.15 K, 6040 kPa, x2 = 0.728): 1326 ± 10 kg/m3
mass density (298.15 K, 6378 kPa, x2 = 0.745): 1330 ± 18 kg/m3
mass density (318.15 K, 1005 kPa, x2 = 0.156): 1387 ± 7 kg/m3
mass density (318.15 K, 2046 kPa, x2 = 0.311): 1391 ± 7 kg/m3
mass density (318.15 K, 3019 kPa, x2 = 0.436): 1389 ± 6 kg/m3
mass density (318.15 K, 4000 kPa, x2 = 0.528): 1397 ± 8 kg/m3
mass density (318.15 K, 6033 kPa, x2 = 0.638): 1380 ± 12 kg/m3
mass density (318.15 K, 8002 kPa, x2 = 0.714): 1378 ± 18 kg/m3
binary diffusion coefficient (318.2 K, 100 kPa, x2 = 0.15): 2.2e-10 m2/s
binary diffusion coefficient (318.2 K, 1000 kPa, x2 = 0.15): 2.9e-10 m2/s
binary diffusion coefficient (318.2 K, 2000 kPa, x2 = 0.15): 3.3e-10 m2/s
mass density (338.15 K, 1019 kPa, x2 = 0.123): 1368 ± 7 kg/m3
mass density (338.15 K, 2011 kPa, x2 = 0.23): 1358 ± 28 kg/m3
mass density (338.15 K, 2520 kPa, x2 = 0.301): 1369 ± 6 kg/m3
mass density (338.15 K, 3004 kPa, x2 = 0.345): 1369 ± 6 kg/m3
mass density (338.15 K, 4000 kPa, x2 = 0.435): 1371 ± 6 kg/m3
mass density (338.15 K, 5007 kPa, x2 = 0.495): 1380 ± 8 kg/m3
mass density (338.15 K, 6020 kPa, x2 = 0.537): 1357 ± 8 kg/m3
mass density (338.15 K, 7504 kPa, x2 = 0.606): 1348 ± 8 kg/m3
mass density (338.15 K, 10012 kPa, x2 = 0.682): 1349 ± 16 kg/m3
mass density (338.15 K, 12486 kPa, x2 = 0.712): 1384 ± 18 kg/m3
mass density (338.15 K, 14895 kPa, x2 = 0.728): 1387 ± 12 kg/m3

CCC[N+]1(C)CCCC1.O=S(=O)([N-]S(=O)(=O)C(F)(F)F)C(F)(F)F + O=C=O
binary diffusion coefficient (298.15 K, 100 kPa, x2 = 0.2): 1.3e-10 m2/s
binary diffusion coefficient (298.15 K, 1000 kPa, x2 = 0.2): 1.8e-10 m2/s
mass density (298.15 K, 1009 kPa, x2 = 0.236): 1464 ± 11 kg/m3
binary diffusion coefficient (298.15 K, 2000 kPa, x2 = 0.2): 2.4e-10 m2/s
mass density (298.15 K, 2028 kPa, x2 = 0.389): 1420 ± 17 kg/m3
mass density (298.15 K, 3030 kPa, x2 = 0.503): 1411 ± 12 kg/m3
mass density (298.15 K, 3507 kPa, x2 = 0.553): 1408 ± 9 kg/m3
mass density (298.15 K, 4038 kPa, x2 = 0.598): 1401 ± 6 kg/m3
mass density (298.15 K, 4517 kPa, x2 = 0.632): 1390 ± 8 kg/m3
mass density (298.15 K, 5014 kPa, x2 = 0.661): 1386 ± 9 kg/m3
mass density (298.15 K, 5505 kPa, x2 = 0.688): 1385 ± 15 kg/m3
mass density (298.15 K, 6003 kPa, x2 = 0.709): 1373 ± 12 kg/m3
mass density (298.15 K, 6397 kPa, x2 = 0.725): 1363 ± 22 kg/m3
mass density (318.15 K, 1055 kPa, x2 = 0.185): 1441 ± 7 kg/m3
mass density (318.15 K, 2223 kPa, x2 = 0.323): 1437 ± 6 kg/m3
mass density (318.15 K, 4005 kPa, x2 = 0.471): 1407 ± 7 kg/m3
mass density (318.15 K, 5004 kPa, x2 = 0.528): 1392 ± 7 kg/m3
mass density (318.15 K, 6004 kPa, x2 = 0.575): 1374 ± 8 kg/m3
mass density (318.15 K, 7010 kPa, x2 = 0.621): 1356 ± 9 kg/m3
mass density (318.15 K, 8010 kPa, x2 = 0.664): 1366 ± 10 kg/m3
mass density (318.15 K, 16527 kPa, x2 = 0.731): 1385 ± 8 kg/m3
mass density (318.15 K, 19966 kPa, x2 = 0.751): 1406 ± 7 kg/m3
binary diffusion coefficient (318.2 K, 100 kPa, x2 = 0.15): 2.7e-10 m2/s
binary diffusion coefficient (318.2 K, 1000 kPa, x2 = 0.15): 3e-10 m2/s
binary diffusion coefficient (318.2 K, 2000 kPa, x2 = 0.15): 3.7e-10 m2/s
mass density (338.15 K, 1009 kPa, x2 = 0.065): 1400 ± 10 kg/m3
mass density (338.15 K, 2002 kPa, x2 = 0.198): 1405 ± 9 kg/m3
mass density (338.15 K, 2508 kPa, x2 = 0.249): 1393 ± 9 kg/m3
mass density (338.15 K, 3007 kPa, x2 = 0.328): 1408 ± 12 kg/m3
mass density (338.15 K, 4008 kPa, x2 = 0.413): 1404 ± 14 kg/m3
mass density (338.15 K, 4999 kPa, x2 = 0.474): 1427 ± 13 kg/m3
mass density (338.15 K, 6006 kPa, x2 = 0.536): 1430 ± 6 kg/m3
mass density (338.15 K, 7503 kPa, x2 = 0.612): 1435 ± 10 kg/m3
